Active and inactive are the calls of the source. The rule behind the calls is not given here.
System: CCRIS mutagenicity, Ames/micronucleus/aberration tests
Experiment: CCRIS mutagenicity studies
[1] = Test System: AMES SALMONELLA TYPHIMURIUM, Strain/Indicator: TA98, Metabolic Activation: NONE, Method: STANDARD PLATE
[2] = Test System: AMES SALMONELLA TYPHIMURIUM, Strain/Indicator: TA98, Metabolic Activation: RAT, LIVER, S-9, AROCLOR 1254, Method: STANDARD PLATE
[3] = Test System: AMES SALMONELLA TYPHIMURIUM, Strain/Indicator: TA100, Metabolic Activation: NONE, Method: STANDARD PLATE
[4] = Test System: AMES SALMONELLA TYPHIMURIUM, Strain/Indicator: TA100, Metabolic Activation: RAT, LIVER, S-9, AROCLOR 1254, Method: STANDARD PLATE
[5] = Test System: AMES SALMONELLA TYPHIMURIUM, Strain/Indicator: TA1535, Metabolic Activation: NONE, Method: STANDARD PLATE
[6] = Test System: AMES SALMONELLA TYPHIMURIUM, Strain/Indicator: TA1535, Metabolic Activation: RAT, LIVER, S-9, AROCLOR 1254, Method: STANDARD PLATE
[7] = Test System: AMES SALMONELLA TYPHIMURIUM, Strain/Indicator: TA1538, Metabolic Activation: NONE, Method: STANDARD PLATE
[8] = Test System: AMES SALMONELLA TYPHIMURIUM, Strain/Indicator: TA1538, Metabolic Activation: RAT, LIVER, S-9, AROCLOR 1254, Method: STANDARD PLATE
[9] = Test System: AMES SALMONELLA TYPHIMURIUM, Strain/Indicator: TA98, Metabolic Activation: NONE, Method: PREINCUBATION
[10] = Test System: AMES SALMONELLA TYPHIMURIUM, Strain/Indicator: TA98, Metabolic Activation: RAT, LIVER, S-9, AROCLOR 1254, Method: PREINCUBATION
[11] = Test System: AMES SALMONELLA TYPHIMURIUM, Strain/Indicator: TA100, Metabolic Activation: NONE, Method: PREINCUBATION
[12] = Test System: AMES SALMONELLA TYPHIMURIUM, Strain/Indicator: TA1535, Metabolic Activation: NONE, Method: PREINCUBATION
[13] = Test System: AMES SALMONELLA TYPHIMURIUM, Strain/Indicator: TA1537, Metabolic Activation: NONE, Method: PREINCUBATION

Q: Which mutagenic call (Test System: AMES SALMONELLA TYPHIMURIUM, Strain/Indicator: TA97, Metabolic Activation: NONE, Method: STANDARD PLATE) does the source give for `O=C(COc1cc(Cl)c(Cl)cc1Cl)N[C@@H](Cc1c[nH]c2ccccc12)C(=O)O` here?
A: inactive; negative

Q: What about the mutagenic call (Test System: AMES SALMONELLA TYPHIMURIUM, Strain/Indicator: TA97, Metabolic Activation: RAT, LIVER, S-9, AROCLOR 1254, Method: STANDARD PLATE) of the same compound?
A: inactive; negative

Q: What about the mutagenic call [1] of the same compound?
A: inactive; negative

Q: What about the mutagenic call [2] of the same compound?
A: inactive; negative

Q: What about the mutagenic call [3] of the same compound?
A: inactive; negative

Q: And the mutagenic call [4]?
A: inactive; negative

Q: And the mutagenic call [5]?
A: inactive; negative

Q: And the mutagenic call [6]?
A: inactive; negative

Q: And the mutagenic call [7]?
A: inactive; negative

Q: What about the mutagenic call [8] of the same compound?
A: inactive; negative

Q: How did the mutagenic call (Test System: AMES SALMONELLA TYPHIMURIUM, Strain/Indicator: TA98, Metabolic Activation: HAMSTER, LIVER, S-9, AROCLOR 1254, Method: STANDARD PLATE) turn out when `c1ccc2nccnc2c1` was run?
A: inactive; negative

Q: And the mutagenic call [9]?
A: inactive; negative

Q: And the mutagenic call [1]?
A: inactive; negative

Q: What about the mutagenic call [10] of the same compound?
A: active; positive

Q: What about the mutagenic call [2] of the same compound?
A: inactive; negative

Q: And the mutagenic call (Test System: AMES SALMONELLA TYPHIMURIUM, Strain/Indicator: TA100, Metabolic Activation: HAMSTER, LIVER, S-9, AROCLOR 1254, Method: STANDARD PLATE)?
A: inactive; negative

Q: What about the mutagenic call [11] of the same compound?
A: inactive; negative

Q: And the mutagenic call [3]?
A: inactive; negative

Q: What about the mutagenic call (Test System: AMES SALMONELLA TYPHIMURIUM, Strain/Indicator: TA100, Metabolic Activation: RAT, LIVER, S-9, AROCLOR 1254, Method: PREINCUBATION) of the same compound?
A: inactive; negative

Q: And the mutagenic call [4]?
A: inactive; negative

Q: And the mutagenic call (Test System: AMES SALMONELLA TYPHIMURIUM, Strain/Indicator: TA102, Metabolic Activation: NONE, Method: PREINCUBATION)?
A: inactive; negative

Q: What about the mutagenic call (Test System: AMES SALMONELLA TYPHIMURIUM, Strain/Indicator: TA102, Metabolic Activation: RAT, LIVER, S-9, AROCLOR 1254, Method: PREINCUBATION) of the same compound?
A: inactive; negative

Q: What about the mutagenic call (Test System: AMES SALMONELLA TYPHIMURIUM, Strain/Indicator: TA1535, Metabolic Activation: HAMSTER, LIVER, S-9, AROCLOR 1254, Method: STANDARD PLATE) of the same compound?
A: inactive; negative

Q: What about the mutagenic call [5] of the same compound?
A: inactive; negative

Q: What about the mutagenic call [6] of the same compound?
A: inactive; negative

Q: What about the mutagenic call (Test System: AMES SALMONELLA TYPHIMURIUM, Strain/Indicator: TA1537, Metabolic Activation: HAMSTER, LIVER, S-9, AROCLOR 1254, Method: STANDARD PLATE) of the same compound?
A: inactive; negative

Q: And the mutagenic call (Test System: AMES SALMONELLA TYPHIMURIUM, Strain/Indicator: TA1537, Metabolic Activation: NONE, Method: STANDARD PLATE)?
A: inactive; negative

Q: And the mutagenic call (Test System: AMES SALMONELLA TYPHIMURIUM, Strain/Indicator: TA1537, Metabolic Activation: RAT, LIVER, S-9, AROCLOR 1254, Method: STANDARD PLATE)?
A: inactive; negative

Q: And the mutagenic call (Test System: AMES SALMONELLA TYPHIMURIUM, Strain/Indicator: TA1538, Metabolic Activation: HAMSTER, LIVER, S-9, AROCLOR 1254, Method: STANDARD PLATE)?
A: inactive; negative

Q: What about the mutagenic call [7] of the same compound?
A: inactive; negative

Q: And the mutagenic call [8]?
A: inactive; negative

Q: What about the mutagenic call (Test System: Mouse lymphoma, Strain/Indicator: L5178Y (tk+/tk-), Metabolic Activation: None, Method: Suspension/plate) of the same compound?
A: inactive; negative

Q: And the mutagenic call (Test System: Mouse lymphoma, Strain/Indicator: L5178Y (tk+/tk-), Metabolic Activation: Rat, Liver, S-9, Aroclor 1254, Method: Suspension/plate)?
A: active; positive

Q: How did the mutagenic call (Test System: AMES SALMONELLA TYPHIMURIUM, Strain/Indicator: TA98(NR), Metabolic Activation: NONE, Method: PREINCUBATION) turn out when `CC(=O)Nc1ccc(Nc2ccc([N+](=O)[O-])cc2)cc1` was run?
A: inactive; negative

Q: What about the mutagenic call [9] of the same compound?
A: active; positive

Q: And the mutagenic call [10]?
A: active; positive

Q: Which results are given for `CC(C)CNCC(C)C`?
A: mutagenic call (Test System: AMES SALMONELLA TYPHIMURIUM, Strain/Indicator: TA98, Metabolic Activation: HAMSTER, LIVER, S-9, AROCLOR 1254 (10%), Method: PREINCUBATION): inactive; negative; mutagenic call [9]: inactive; negative; mutagenic call (Test System: AMES SALMONELLA TYPHIMURIUM, Strain/Indicator: TA98, Metabolic Activation: RAT, LIVER, S-9, AROCLOR 1254 (10%), Method: PREINCUBATION): inactive; negative; mutagenic call (Test System: AMES SALMONELLA TYPHIMURIUM, Strain/Indicator: TA100, Metabolic Activation: HAMSTER, LIVER, S-9, AROCLOR 1254 (10%), Method: PREINCUBATION): inactive; negative; mutagenic call [11]: inactive; negative; mutagenic call (Test System: AMES SALMONELLA TYPHIMURIUM, Strain/Indicator: TA100, Metabolic Activation: RAT, LIVER, S-9, AROCLOR 1254 (10%), Method: PREINCUBATION): inactive; negative; mutagenic call (Test System: AMES SALMONELLA TYPHIMURIUM, Strain/Indicator: TA1535, Metabolic Activation: HAMSTER, LIVER, S-9, AROCLOR 1254 (10%), Method: PREINCUBATION): inactive; negative; mutagenic call [12]: inactive; negative; mutagenic call (Test System: AMES SALMONELLA TYPHIMURIUM, Strain/Indicator: TA1535, Metabolic Activation: RAT, LIVER, S-9, AROCLOR 1254 (10%), Method: PREINCUBATION): inactive; negative; mutagenic call (Test System: AMES SALMONELLA TYPHIMURIUM, Strain/Indicator: TA1537, Metabolic Activation: HAMSTER, LIVER, S-9, AROCLOR 1254 (10%), Method: PREINCUBATION): inactive; negative; mutagenic call [13]: inactive; negative; mutagenic call (Test System: AMES SALMONELLA TYPHIMURIUM, Strain/Indicator: TA1537, Metabolic Activation: RAT, LIVER, S-9, AROCLOR 1254 (10%), Method: PREINCUBATION): inactive; negative

Q: Which mutagenic call [9] does the source give for `C[C@@H]1COc2c(N3CCN(C)CC3)c(F)cc3c(=O)c(C(=O)O)cn1c23` here?
A: inactive; negative

Q: And the mutagenic call (Test System: AMES SALMONELLA TYPHIMURIUM, Strain/Indicator: TA98, Metabolic Activation: RAT, LIVER, S-9, PHENOBARBITAL AND BETA-NAPHTHOFLAVONE, Method: PREINCUBATION)?
A: inactive; negative

Q: What about the mutagenic call [11] of the same compound?
A: inactive; negative

Q: What about the mutagenic call (Test System: AMES SALMONELLA TYPHIMURIUM, Strain/Indicator: TA100, Metabolic Activation: RAT, LIVER, S-9, PHENOBARBITAL AND BETA-NAPHTHOFLAVONE, Method: PREINCUBATION) of the same compound?
A: inactive; negative

Q: What about the mutagenic call [12] of the same compound?
A: inactive; negative

Q: And the mutagenic call (Test System: AMES SALMONELLA TYPHIMURIUM, Strain/Indicator: TA1535, Metabolic Activation: RAT, LIVER, S-9, PHENOBARBITAL AND BETA-NAPHTHOFLAVONE, Method: PREINCUBATION)?
A: inactive; negative

Q: What about the mutagenic call [13] of the same compound?
A: inactive; negative

Q: What about the mutagenic call (Test System: AMES SALMONELLA TYPHIMURIUM, Strain/Indicator: TA1537, Metabolic Activation: RAT, LIVER, S-9, PHENOBARBITAL AND BETA-NAPHTHOFLAVONE, Method: PREINCUBATION) of the same compound?
A: inactive; negative

Q: What about the mutagenic call (Test System: E.COLI, Strain/Indicator: WP2 UVRA, Metabolic Activation: NONE, Method: PREINCUBATION) of the same compound?
A: inactive; negative

Q: What about the mutagenic call (Test System: E.COLI, Strain/Indicator: WP2 UVRA, Metabolic Activation: RAT, LIVER, S-9, PHENOBARBITAL AND BETA-NAPHTHOFLAVONE, Method: PREINCUBATION) of the same compound?
A: inactive; negative

Q: With `CNC(=O)Oc1ccccc1` as the compound, how does the mutagenic call [2] read?
A: inactive; negative

Q: And the mutagenic call [6]?
A: inactive; negative

Q: Which mutagenic call [11] does the source give for `Cc1cccc2c1cc(C)c1c3c(ccc12)C(O)C(O)C1OC31` (centres undefined) here?
A: active; positive

Q: And the mutagenic call [3]?
A: active; positive

Q: `c1ccc([C@@H]2CO2)cc1` was tested. Which mutagenic call (Test System: AMES SALMONELLA TYPHIMURIUM, Strain/Indicator: TA100, Metabolic Activation: NONE) did it give?
A: active; positive

Q: And the mutagenic call [3]?
A: active; positive

Source: PubChem BioAssay AID1259407 (Chemical Carcinogenesis Research Information System (CCRIS), 2018)
